This note sets out measurements from ChEMBL document CHEMBL1144706, “Antineoplastic agents. 558. Ampelocissus sp. cancer cell growth inhibitory constituents” (2008).

Holding throughout (assay type): functional
The subject of one assay is BXPC-3. Nature of the assay: Growth inhibition of human BXPC3 cells.
The next assay has as its system P388. Nature of the assay: Growth inhibition of mouse P388 cells.
For another assay, the system named is KM-20L2. The experiment in a line: Growth inhibition of human KM20L2 cells.
For the next assay, the system named is MCF7. Nature of the assay: Growth inhibition of human MCF7 cells.
Another assay relates to NCI-H460. The experiment in a line: Growth inhibition of human NCI-H460 cells.
A further assay deals with DU-145. The experiment in a line: Growth inhibition of human DU145 cells.
In another assay the test system is SF-268. The experiment in a line: Growth inhibition of human SF268 cells.

≈ marks a conversion by molar mass, not a printed value.

As usually defined, the GI50 is the concentration giving 50% growth inhibition. A high value points to less potent growth inhibition. `CCCCCCCCCCCC[C@@H](O)[C@H]1CC[C@H]([C@@H](C[C@H](O)CCCCCCCCCCCCC2=CC(C)OC2=O)OC(C)=O)O1` (some centres undefined): the 50% growth inhibitory concentration (GI50) in the assay on BXPC-3 was 7.3 µg/mL (≈ 11.2 µM); with P388, 0.014 µg/mL (≈ 0.0215 µM); in the assay with KM-20L2, 0.034 µg/mL (≈ 0.0522 µM); in the assay with MCF7, 0.12 µg/mL (≈ 0.184 µM); in the assay on NCI-H460, 0.2 µg/mL (≈ 0.307 µM); in the assay with DU-145, 0.0065 µg/mL (≈ 0.00998 µM). This compound also yielded a concentration for 50% growth inhibition (GI50) in the assay with SF-268 of 11.9 µg/mL (≈ 18.3 µM).
Turning to `Cc1c(O)c(C=O)c(O)c(C(=O)CCc2ccccc2)c1O`, the GI50 in the assay on BXPC-3 worked out at 0.3 µg/mL (≈ 0.999 µM); in the assay with KM-20L2, 0.36 µg/mL (≈ 1.2 µM); with MCF7, 0.3 µg/mL (≈ 0.999 µM); with NCI-H460, 0.52 µg/mL (≈ 1.73 µM); in the assay on DU-145 it was 0.33 µg/mL (≈ 1.1 µM); in the assay on SF-268 it was 0.55 µg/mL (≈ 1.83 µM).
As to `CCCCCCCCCCCC[C@@H](O)[C@H]1CC[C@H]([C@@H](C[C@H](O)CCCCCCCCCC(O)CCC2=CC(C)OC2=O)OC(C)=O)O1` (some centres undefined) [UVARIBONIN], the GI50 came out at 1.3 µg/mL (≈ 1.95 µM) with BXPC-3; 0.0013 µg/mL (≈ 0.00195 µM) in the assay on KM-20L2; 0.0022 µg/mL (≈ 0.0033 µM) in the assay with MCF7; 1 µg/mL (≈ 1.5 µM) with NCI-H460; 0.0093 µg/mL (≈ 0.0139 µM) in the assay on DU-145; 1.4 µg/mL (≈ 2.1 µM) in the assay on SF-268.
